How the values were obtained:
mouse receptor = molecular target: T1, mouse receptor (Mus musculus, UniProt P26955+Q00941); test: Activity for the mouse GM-CSF receptor
T1 sequence (Q00941 30-388): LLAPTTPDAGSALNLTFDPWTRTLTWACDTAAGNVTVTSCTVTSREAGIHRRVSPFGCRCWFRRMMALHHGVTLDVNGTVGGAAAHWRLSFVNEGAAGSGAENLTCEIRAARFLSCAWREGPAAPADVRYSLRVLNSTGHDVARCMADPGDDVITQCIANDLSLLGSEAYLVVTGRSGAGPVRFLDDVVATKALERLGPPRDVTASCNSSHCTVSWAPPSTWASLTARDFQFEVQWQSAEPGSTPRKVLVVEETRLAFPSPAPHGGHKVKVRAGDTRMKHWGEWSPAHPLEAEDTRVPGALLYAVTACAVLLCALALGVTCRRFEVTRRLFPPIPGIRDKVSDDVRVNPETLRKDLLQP
T1 sequence (P26955 23-896): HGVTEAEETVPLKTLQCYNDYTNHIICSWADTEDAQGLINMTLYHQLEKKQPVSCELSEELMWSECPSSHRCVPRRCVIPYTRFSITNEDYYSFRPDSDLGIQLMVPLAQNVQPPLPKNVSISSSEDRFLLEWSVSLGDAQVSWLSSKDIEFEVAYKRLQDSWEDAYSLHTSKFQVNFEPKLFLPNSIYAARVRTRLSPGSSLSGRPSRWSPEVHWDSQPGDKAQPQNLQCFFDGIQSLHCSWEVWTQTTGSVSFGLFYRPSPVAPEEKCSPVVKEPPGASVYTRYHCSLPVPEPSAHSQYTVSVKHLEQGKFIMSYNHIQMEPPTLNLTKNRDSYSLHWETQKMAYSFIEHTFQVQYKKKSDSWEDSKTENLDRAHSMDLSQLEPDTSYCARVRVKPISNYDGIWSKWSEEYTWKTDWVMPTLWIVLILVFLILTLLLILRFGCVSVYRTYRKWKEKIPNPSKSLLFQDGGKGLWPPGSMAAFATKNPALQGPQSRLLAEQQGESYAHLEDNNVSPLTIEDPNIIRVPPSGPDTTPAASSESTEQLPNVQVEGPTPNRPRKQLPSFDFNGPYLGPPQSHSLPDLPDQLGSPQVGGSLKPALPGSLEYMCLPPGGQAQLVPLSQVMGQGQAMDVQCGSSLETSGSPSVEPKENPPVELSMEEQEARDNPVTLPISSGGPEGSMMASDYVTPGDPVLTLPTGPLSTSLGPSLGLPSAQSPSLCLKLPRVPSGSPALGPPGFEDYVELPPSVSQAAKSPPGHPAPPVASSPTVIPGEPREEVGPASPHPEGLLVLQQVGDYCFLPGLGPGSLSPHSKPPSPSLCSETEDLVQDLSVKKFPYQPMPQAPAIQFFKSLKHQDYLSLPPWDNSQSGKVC

human receptor = molecular target: T2, human receptor (Homo sapiens, UniProt P15509+P32927); test: Activity for the human GM-CSF receptor
T2 sequence (P15509 23-400): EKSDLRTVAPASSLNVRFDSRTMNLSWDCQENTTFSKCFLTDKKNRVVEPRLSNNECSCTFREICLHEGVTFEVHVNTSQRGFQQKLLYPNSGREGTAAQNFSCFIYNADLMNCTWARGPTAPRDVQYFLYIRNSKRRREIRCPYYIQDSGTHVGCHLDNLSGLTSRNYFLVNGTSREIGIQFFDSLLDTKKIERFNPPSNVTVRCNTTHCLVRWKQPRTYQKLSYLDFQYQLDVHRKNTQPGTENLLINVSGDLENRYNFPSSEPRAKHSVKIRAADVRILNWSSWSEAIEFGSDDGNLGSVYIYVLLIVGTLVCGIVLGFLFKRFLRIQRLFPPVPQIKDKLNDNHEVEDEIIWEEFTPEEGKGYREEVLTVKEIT
T2 sequence (P32927 17-897): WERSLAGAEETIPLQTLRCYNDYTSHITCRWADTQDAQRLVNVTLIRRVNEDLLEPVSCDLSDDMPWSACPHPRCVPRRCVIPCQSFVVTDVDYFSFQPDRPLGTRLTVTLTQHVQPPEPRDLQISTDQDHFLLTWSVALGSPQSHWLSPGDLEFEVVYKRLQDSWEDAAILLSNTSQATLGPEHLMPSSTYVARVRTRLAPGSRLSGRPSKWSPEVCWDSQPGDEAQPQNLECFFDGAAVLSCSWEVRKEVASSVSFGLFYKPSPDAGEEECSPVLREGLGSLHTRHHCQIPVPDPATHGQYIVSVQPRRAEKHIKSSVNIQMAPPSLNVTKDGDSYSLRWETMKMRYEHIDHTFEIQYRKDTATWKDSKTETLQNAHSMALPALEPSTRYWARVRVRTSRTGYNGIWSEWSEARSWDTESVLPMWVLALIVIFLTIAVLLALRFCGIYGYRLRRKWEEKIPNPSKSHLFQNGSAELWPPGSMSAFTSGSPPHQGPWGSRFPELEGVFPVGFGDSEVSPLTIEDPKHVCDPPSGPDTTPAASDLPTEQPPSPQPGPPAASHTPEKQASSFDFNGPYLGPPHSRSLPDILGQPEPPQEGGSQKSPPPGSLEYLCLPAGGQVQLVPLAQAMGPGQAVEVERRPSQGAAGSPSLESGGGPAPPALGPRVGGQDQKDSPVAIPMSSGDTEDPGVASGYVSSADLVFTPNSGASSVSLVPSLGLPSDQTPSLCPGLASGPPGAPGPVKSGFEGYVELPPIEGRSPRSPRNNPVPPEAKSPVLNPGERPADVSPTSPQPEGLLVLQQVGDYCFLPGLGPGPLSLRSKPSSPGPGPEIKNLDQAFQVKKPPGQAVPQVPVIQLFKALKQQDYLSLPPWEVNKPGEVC

activity for the mouse receptor (mouse receptor): has activity | activity for the human receptor (human receptor): does not have activity
Sequence: QPWEHVNAIQEAR {PEG4} DFLLVIP {PEG4} QPWEHVNAIQEAR {PEG4} DFLLVIP [Mimetic M7]

Source: patent US11267859B2, “GM-CSF mimetics and methods of making and using same” (The Regents of the University of Colorado, a body corporate, priority 2017, dated 2022)
